Reference: article PMC11212140, “Molecular Bidents with Two Electrophilic Warheads as a New Pharmacological Modality” (ACS Central Science, 2024)

Experiments:
Test in all cases: KiNativ profiling in H3255 cells
Format in all cases: cell-based, human
AurA = tested on: T1, AurA; details: 2.5 µM
T1 construct: purchased ActivX Biosciences (KiNativ)
Procedure: (§1) H3255 cells were plated with 6.5x10^6 per condition in fresh media in 15 cm plates and treated the 80% confluency for 2 hours with DMSO or 2.5 μM of ZNL-0056. To harvest cells, plates were washed 3 times with cold PBS, then collected by scraping into 4 mL of cold PBS containing protease and phosphatase inhibitors. Cells were pelleted by centrifugation at 1350 g at 4 ℃ for 5 minutes and immediately frozen in liquid nitrogen. The frozen samples were sent to ActivX Biosciences (La Jolla, CA) for the remainder of the KiNativ profiling experiment4. […]

PIK3C2B = tested on: T2, PIK3C2B; details: 2.5 µM; ATP; VIFKCGDDLRQDMLTLQMIR
T2 construct: purchased ActivX Biosciences (KiNativ)
Procedure: as §1

ACK = tested on: T3, ACK; details: 2.5 µM
T3 construct: purchased ActivX Biosciences (KiNativ)
Procedure: as §1

PLK2 = tested on: T4, PLK2; details: 2.5 µM; Lys2; DLKLGNFFINEAMELK
T4 construct: purchased ActivX Biosciences (KiNativ)
Procedure: as §1

Erk1 = tested on: T5, Erk1; details: 2.5 µM; Lys2; DLKPSNLLINTTCDLK
T5 construct: purchased ActivX Biosciences (KiNativ)
Procedure: as §1

MAP2K4 = tested on: T6, MAP2K4; details: 2.5 µM
T6 construct: purchased ActivX Biosciences (KiNativ)
Procedure: as §1

CASK = tested on: T7, CASK; details: 2.5 µM; Lys1; ETGQQFAVKIVDVAK
T7 construct: purchased ActivX Biosciences (KiNativ)
Procedure: as §1

FAK = tested on: T8, FAK; details: 2.5 µM
T8 construct: purchased ActivX Biosciences (KiNativ)
Procedure: as §1

NEK6, NEK7 = details: 2.5 µM; Lys2; DIKPANVFITATGVVK
Procedure: as §1

CDK6 = tested on: T9, CDK6; details: 2.5 µM; Lys2; DLKPQNILVTSSGQIK
T9 construct: purchased ActivX Biosciences (KiNativ)
Procedure: as §1

LATS2 = tested on: T10, LATS2; details: 2.5 µM
T10 construct: purchased ActivX Biosciences (KiNativ)
Procedure: as §1

CRK7 = tested on: T11, CRK7; details: 2.5 µM; Lys2; DIKCSNILLNNSGQIK
T11 construct: purchased ActivX Biosciences (KiNativ)
Procedure: as §1

SBK = tested on: T12, SBK; details: 2.5 µM; Lys2; DIKPENVLLFDR
T12 construct: purchased ActivX Biosciences (KiNativ)
Procedure: as §1

CLK3 = tested on: T13, CLK3; details: 2.5 µM
T13 construct: purchased ActivX Biosciences (KiNativ)
Procedure: as §1

ABL, ARG = details: 2.5 µM
Procedure: as §1

NEK3 = tested on: T14, NEK3; details: 2.5 µM; Activation Loop; SKNIFLTQNGK
T14 construct: purchased ActivX Biosciences (KiNativ)
Procedure: as §1

ZC2/TNIK = tested on: T15, ZC2/TNIK; details: 2.5 µM; Lys1; TGQLAAIKVMDVTGDEEEEIKQEINMLKK
T15 construct: purchased ActivX Biosciences (KiNativ)
Procedure: as §1

PIK3C3 = tested on: T16, PIK3C3; details: 2.5 µM; ATP; TEDGGKYPVIFKHGDDLRQDQLILQIISLMDK
T16 construct: purchased ActivX Biosciences (KiNativ)
Procedure: as §1

EphA2 = tested on: T17, EphA2; details: 2.5 µM; Activation Loop; VLEDDPEATYTTSGGKIPIR
T17 construct: purchased ActivX Biosciences (KiNativ)
Procedure: as §1

TBK1 = tested on: T18, TBK1; details: 2.5 µM; Lys1; TGDLFAIKVFNNISFLRPVDVQMR
T18 construct: purchased ActivX Biosciences (KiNativ)
Procedure: as §1

PIP4K2A = tested on: T19, PIP4K2A; details: 2.5 µM, ATP
T19 construct: purchased ActivX Biosciences (KiNativ)
Procedure: as §1

p38d, p38g = details: 2.5 µM; Lys2; DLKPGNLAVNEDCELK
Procedure: as §1

MAP3K2, MAP3K3 = details: 2.5 µM; Lys2; DIKGANILR
Procedure: as §1

p70S6K = tested on: T20, p70S6K; details: 2.5 µM
T20 construct: purchased ActivX Biosciences (KiNativ)
Procedure: as §1

CHK1 = tested on: T21, CHK1; details: 2.5 µM; Lys2; DIKPENLLLDER
T21 construct: purchased ActivX Biosciences (KiNativ)
Procedure: as §1

FER = tested on: T22, FER; details: 2.5 µM
T22 construct: purchased ActivX Biosciences (KiNativ)
Procedure: as §1

PKD1, PKD2 = details: 2.5 µM; Lys2; NIVHCDLKPENVLLASADPFPQVK
Procedure: as §1

ARAF = tested on: T23, ARAF; details: 2.5 µM; Lys2; DLKSNNIFLHEGLTVK
T23 construct: purchased ActivX Biosciences (KiNativ)
Procedure: as §1

CSK = tested on: T24, CSK; details: 2.5 µM
T24 construct: purchased ActivX Biosciences (KiNativ)
Procedure: as §1

p38a = tested on: T25, p38a; details: 2.5 µM
T25 construct: purchased ActivX Biosciences (KiNativ)
Procedure: as §1

GCN2 domain2 = tested on: T26, GCN2 domain2; details: 2.5 µM
T26 construct: GCN2 domain2; purchased ActivX Biosciences (KiNativ)
Procedure: as §1

[1] = Lys1, TVSVAVKCLKPDVLSQPEAMDDFIR
[2] = Lys1, CIGEGQFGDVHQGIYMSPENPALAVAIKTCK
[3] = ATP Loop, YEIVGNLGEGTFGKVVECLDHAR
[4] = Lys2, FLHENQLTHTDLKPENILFVNSEFETLYNEHK
[5] = Activation Loop, LMTGDTYTAHAGAKFPIK
[6] = Activation Loop, QEDGGVYSSSGLKQIPIK
[7] = Activation Loop, VSDFGLTKEASSTQDTGKLPVK
[8] = Lys1, VAVKCIKNDATAQAFLAEASVMTQLR

Question: What does the source list for `C=CC(=O)Nc1cc(Nc2nccc(-c3cn(C)c4ccccc34)n2)c(OC)cc1N(C)CCN(C)C` [Osimertinib, osimertinib, reference compound]?
Answer: Inhibition (AurA; Lys1, FILALKVLFK): -3.3%; Inhibition (AurA; Lys2, DIKPENLLLGSAGELK): 2.6%; Inhibition (PIK3C2B): 1.3%; Inhibition (ACK; Activation Loop, KVPFAWCAPESLK): 27.2%; Inhibition (ACK; [1]): 25.7%; Inhibition (PLK2): 10.4%; Inhibition (Erk1): -0.641%; Inhibition (MAP2K4; Lys1, MVHKPSGQIMAVKR): 12.0%; Inhibition (MAP2K4; Lys2, DIKPSNILLDR): 30.7%; Inhibition (CASK): 6.8%; Inhibition (FAK; Activation Loop, YMEDSTYYKASK): -25.6%; Inhibition (FAK; [2]): 16.5%; Inhibition (NEK6, NEK7): -8.8%; Inhibition (CDK6): -8.5%; Inhibition (LATS2; Lys1, VDTHALYAMKTLR): -12.9%; Inhibition (LATS2; Lys2, DIKPDNILIDLDGHIK): -15.6%; Inhibition (CRK7): 31.9%; Inhibition (SBK): -14.3%; Inhibition (CLK3; [3]): -8.7%; Inhibition (CLK3; [4]): -18.4%; Inhibition (ABL, ARG; [5]): 8.4%; Inhibition (ABL, ARG; Lys1, YSLTVAVKTLKEDTMEVEEFLK): 4.3%; Inhibition (NEK3): -0.9%; Inhibition (ZC2/TNIK): 19.5%; Inhibition (PIK3C3): -7.5%; Inhibition (EphA2): 18.1%; Inhibition (TBK1): -18.1%; Inhibition (PIP4K2A; AKELPTLKDNDFINEGQK): -3.2%; Inhibition (PIP4K2A; YIIKTITSEDVAEMHNILK): -14.3%; Inhibition (p38d, p38g): 11.1%; Inhibition (MAP3K2, MAP3K3): -6.6%; Inhibition (p70S6K; Lys1, IFAMKVLK): -2.7%; Inhibition (p70S6K; Lys2, DLKPENIMLNHQGHVK): -39.3%; Inhibition (CHK1): 15.0%; Inhibition (FER; [6]): 28.7%; Inhibition (FER; Lys1, TSVAVKTCKEDLPQELK): -15.4%; Inhibition (PKD1, PKD2): -8.5%; Inhibition (ARAF): -20.1%; Inhibition (CSK; [7]): -3.3%; Inhibition (CSK; Lys1, VAVKCIK): -17.2%; Inhibition (CSK; [8]): 16.1%; Inhibition (p38a; Lys2, DLKPSNLAVNEDCELK): 19.9%; Inhibition (p38a; Other, QELNKTIWEVPER): 12.6%; Inhibition (GCN2 domain2; Lys1, LDGCCYAVKR): 3.6%; Inhibition (GCN2 domain2; Lys2, DLKPVNIFLDSDDHVK): -25.4%

Question: Which Inhibition (AurA; Lys1, FILALKVLFK) does the source give for `C=CC(=O)Nc1cc(C(=O)Nc2nc3cccc(C)c3n2[C@@H]2CCCCN(C(=O)C=C)C2)cs1` [ZNL-0056] here?
Answer: -0.0337%

Question: What about the Inhibition (AurA; Lys2, DIKPENLLLGSAGELK) of the same molecule?
Answer: -15.7%

Question: And the Inhibition (PIK3C2B)?
Answer: -9.6%

Question: And the Inhibition (ACK; Activation Loop, KVPFAWCAPESLK)?
Answer: -21.4%

Question: What about the Inhibition (ACK; [1]) of the same molecule?
Answer: -6.2%

Question: What about the Inhibition (PLK2) of the same molecule?
Answer: 18.8%

Question: What about the Inhibition (Erk1) of the same molecule?
Answer: -17.6%

Question: What about the Inhibition (MAP2K4; Lys1, MVHKPSGQIMAVKR) of the same molecule?
Answer: 5.7%

Question: And the Inhibition (MAP2K4; Lys2, DIKPSNILLDR)?
Answer: 2.6%

Question: And the Inhibition (CASK)?
Answer: -14.3%

Question: What about the Inhibition (FAK; Activation Loop, YMEDSTYYKASK) of the same molecule?
Answer: -16.1%

Question: And the Inhibition (FAK; [2])?
Answer: -40.2%

Question: What about the Inhibition (NEK6, NEK7) of the same molecule?
Answer: 0.45%

Question: And the Inhibition (CDK6)?
Answer: -27.5%

Question: And the Inhibition (LATS2; Lys1, VDTHALYAMKTLR)?
Answer: 15.4%

Question: And the Inhibition (LATS2; Lys2, DIKPDNILIDLDGHIK)?
Answer: 23.5%

Question: What about the Inhibition (CRK7) of the same molecule?
Answer: -9.2%

Question: What about the Inhibition (SBK) of the same molecule?
Answer: 9.6%

Question: What about the Inhibition (CLK3; [3]) of the same molecule?
Answer: 10.0%

Question: And the Inhibition (CLK3; [4])?
Answer: 13.8%

Question: What about the Inhibition (ABL, ARG; [5]) of the same molecule?
Answer: -3.8%

Question: What about the Inhibition (ABL, ARG; Lys1, YSLTVAVKTLKEDTMEVEEFLK) of the same molecule?
Answer: 17.1%

Question: What about the Inhibition (NEK3) of the same molecule?
Answer: -5.3%

Question: And the Inhibition (ZC2/TNIK)?
Answer: 32.8%

Question: What about the Inhibition (PIK3C3) of the same molecule?
Answer: 6.7%

Question: And the Inhibition (EphA2)?
Answer: 13.2%

Question: What about the Inhibition (TBK1) of the same molecule?
Answer: 5.3%

Question: What about the Inhibition (PIP4K2A; AKELPTLKDNDFINEGQK) of the same molecule?
Answer: -0.9%

Question: What about the Inhibition (PIP4K2A; YIIKTITSEDVAEMHNILK) of the same molecule?
Answer: -4.5%

Question: What about the Inhibition (p38d, p38g) of the same molecule?
Answer: -20.6%

Question: And the Inhibition (MAP3K2, MAP3K3)?
Answer: -6.0%

Question: And the Inhibition (p70S6K; Lys1, IFAMKVLK)?
Answer: 23.2%

Question: And the Inhibition (p70S6K; Lys2, DLKPENIMLNHQGHVK)?
Answer: -10.8%

Question: And the Inhibition (CHK1)?
Answer: -8.1%

Question: What about the Inhibition (FER; [6]) of the same molecule?
Answer: -11.1%

Question: What about the Inhibition (FER; Lys1, TSVAVKTCKEDLPQELK) of the same molecule?
Answer: -6.4%

Question: And the Inhibition (PKD1, PKD2)?
Answer: 7.5%

Question: And the Inhibition (ARAF)?
Answer: 11.3%

Question: And the Inhibition (CSK; [7])?
Answer: -1.9%

Question: What about the Inhibition (CSK; Lys1, VAVKCIK) of the same molecule?
Answer: -0.8%

Question: What about the Inhibition (CSK; [8]) of the same molecule?
Answer: 6.7%

Question: And the Inhibition (p38a; Lys2, DLKPSNLAVNEDCELK)?
Answer: -10.4%

Question: What about the Inhibition (p38a; Other, QELNKTIWEVPER) of the same molecule?
Answer: -5.0%

Question: And the Inhibition (GCN2 domain2; Lys1, LDGCCYAVKR)?
Answer: 0.0617%

Question: And the Inhibition (GCN2 domain2; Lys2, DLKPVNIFLDSDDHVK)?
Answer: 5.5%
